From patent US10550102B2, “Indane and indoline derivatives and the use thereof as soluble guanylate cyclase activators” (NOVARTIS AG, priority 2014, dated 2020)
Where two headings read alike, the source gives them in different places.

Target: soluble guanylate cyclase (human GUCYA3 and GUCYB3) overexpressed in CHO cells (Homo sapiens (Human), UniProt Q02108+Q02153)
Assay: CHO cellular assay (cGMP production, Cisbio cGMP HTRF kit)
Type: cell-based
Source text: Chinese hamster ovary (CHO) cells overexpressing soluble guanylate cyclase were generated to test the effect of sGC activators in a cellular context. Human cDNAs for GUCYA3 (RefSeq: NM_000856.3) and GUCYB3 (RefSeq: NM_000857.1) were amplified by PCR from a HUVEC (Human Umbilical Vein Endothelial Cells) cDNA library and cloned into mammalian expression vectors. CHO K1 cells (ATCC CCL-61) were transfected using Lipofectamine 2000 following manufacturer's instructions and stably expressing clones were identified by antibiotic selection. CHO GUCY clone 8E10 was used for subsequent experiments. Cells were seeded at a density of 3000 cells/well in white 384-well proxyplates (Perkin Elmer) and incubated overnight, then the medium was removed and cells were washed with assay buffer (HBSS, 0.1% BSA. 1 mM IBMX, 20 uM ODQ). sGC activators were serially diluted in DMSO, then diluted in assay buffer prior to adding to cells (10 ul/well, final DMSO concentration 0.5%). Cells were incubated with compounds for 1 h room temperature, then assayed for cGMP production using Cisbio cGMP HTRF kit (62GM2PEC) according to manufacturer's instructions. The EC50s are calculated based on the amount of cGMP interpolated from the standard curve, using a 4-parameter sigmoidal dose-response.

[1] = CHO GUCY clone 8E10, cGMP production, assay buffer with 1 mM IBMX and 20 uM ODQ, 1 h room temperature, minimum quantification limit 0.5 nM (listed 0.5 nM means ≤0.5 nM), read-out: EC50

Chain of soluble guanylate cyclase (human GUCYA3 and GUCYB3) overexpressed in CHO cells (Q02108 whole entry partner): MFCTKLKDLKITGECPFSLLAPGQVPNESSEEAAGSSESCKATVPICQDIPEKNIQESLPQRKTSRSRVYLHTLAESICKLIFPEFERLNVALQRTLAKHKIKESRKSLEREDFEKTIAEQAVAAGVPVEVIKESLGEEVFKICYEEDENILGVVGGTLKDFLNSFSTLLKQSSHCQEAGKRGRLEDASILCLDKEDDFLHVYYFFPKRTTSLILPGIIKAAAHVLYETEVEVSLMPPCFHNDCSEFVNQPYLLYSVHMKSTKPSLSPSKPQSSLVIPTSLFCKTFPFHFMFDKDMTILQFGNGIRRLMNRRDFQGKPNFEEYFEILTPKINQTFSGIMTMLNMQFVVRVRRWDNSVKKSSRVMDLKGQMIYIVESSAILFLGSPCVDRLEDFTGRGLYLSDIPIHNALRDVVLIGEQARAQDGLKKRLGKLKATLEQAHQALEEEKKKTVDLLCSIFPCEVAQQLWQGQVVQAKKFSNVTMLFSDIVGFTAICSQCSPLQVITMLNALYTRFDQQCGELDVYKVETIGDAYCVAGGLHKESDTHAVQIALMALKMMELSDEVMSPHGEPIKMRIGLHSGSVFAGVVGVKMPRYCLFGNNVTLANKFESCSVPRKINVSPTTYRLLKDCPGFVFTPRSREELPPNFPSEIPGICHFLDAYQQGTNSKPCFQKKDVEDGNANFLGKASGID
Chain of soluble guanylate cyclase (human GUCYA3 and GUCYB3) overexpressed in CHO cells (Q02153 whole entry): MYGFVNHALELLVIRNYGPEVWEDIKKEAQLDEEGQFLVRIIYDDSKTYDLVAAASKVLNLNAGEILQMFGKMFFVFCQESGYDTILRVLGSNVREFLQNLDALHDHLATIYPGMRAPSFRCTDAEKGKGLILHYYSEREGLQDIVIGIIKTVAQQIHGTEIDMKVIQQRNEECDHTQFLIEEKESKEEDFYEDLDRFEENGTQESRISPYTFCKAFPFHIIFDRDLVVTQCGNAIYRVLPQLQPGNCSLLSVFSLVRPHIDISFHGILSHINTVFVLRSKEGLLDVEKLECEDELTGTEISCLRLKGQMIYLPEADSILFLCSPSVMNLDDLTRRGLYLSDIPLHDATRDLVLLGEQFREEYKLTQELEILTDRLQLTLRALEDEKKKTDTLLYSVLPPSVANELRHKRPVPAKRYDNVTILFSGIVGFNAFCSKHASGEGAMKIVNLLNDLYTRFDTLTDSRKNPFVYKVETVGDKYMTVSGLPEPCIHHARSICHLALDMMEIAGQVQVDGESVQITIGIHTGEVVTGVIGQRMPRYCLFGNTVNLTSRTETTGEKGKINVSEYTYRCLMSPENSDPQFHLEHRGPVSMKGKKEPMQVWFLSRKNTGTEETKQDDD

Row | EC50 [1] [nM] | SMILES | EC50 (EC50 (nM)) [nM]
1 | 2 | CCc1nc(NC2CCc3cccc(-c4cccc(-n5ncc(C(=O)O)c5CC)n4)c32)ccc1C1CCN(C(=O)C2CC2)CC1 (single isomer, unassigned; (+)) [Example 63a, (+)-1-(6-(3-((5-(1-(Cyclopropanecarbonyl)piperidin-4-yl)-6-ethylpyridin-2-yl)amino)-2,3-dihydro-1H-inden-4-yl)pyridin-2-yl)-5-ethyl-1H-pyrazole-4-carboxylic Acid] | 
2 | 1.4 | CCc1cc(O[C@H]2CCc3cccc(-c4cccc(-n5ncc(C(=O)O)c5CC)n4)c32)ccc1C1CCN(C(=O)OCC2CC2)CC1 [Example 64-6, (S)-1-(6-(3-(4-(1-((Cyclopropylmethoxy)carbonyl)piperidin-4-yl)-3-ethylphenoxy)-2,3-dihydro-1H-inden-4-yl)pyridin-2-yl)-5-ethyl-1H-pyrazole-4-carboxylic acid] | 
3 | ≤ 0.5 | Cc1cc(C2CCN(C(=O)C3CCC3)CC2)ccc1NC1CCc2cccc(-c3cccc(-n4ncc(C(=O)O)c4C)n3)c21 (single isomer, unassigned; (+)) [Example 45a] | 
4 | 17 | Cc1cc(C2CCN(C(=O)[C@H](C)O)CC2)ccc1NC1COc2cccc(-c3cccc(-n4ncc(C(=O)O)c4C)n3)c21 (single isomer, unassigned; (-)) [Example 35b] | 
5 | ≤ 0.5 | CCC[C@H](O)C(=O)N1CCC(c2ccc(O[C@H]3CCc4cccc(-c5cccc(-n6ncc(C(=O)O)c6CC)n5)c43)cc2CC)CC1 [Example 31-1] | 

Second part, the compound before the results:

Row | SMILES | EC50 [1] [nM] | EC50 (EC50 (nM)) [nM]
6 | CCc1cc(O[C@H]2CCc3cccc(-c4cccc(-n5ncc(C(=O)O)c5CC)n4)c32)ccc1C1CCN(C(=O)C2CC2)CC1 [Example 5-9] | ≤ 0.5 | 
7 | CCc1cc(Cn2ccc3cccc(-c4cccc(-n5ncc(C(=O)O)c5CC)n4)c32)ccc1C1CCN(C(=O)C2CC2)CC1 [Example 27] | ≤ 0.5 | 
8 | Cc1cc(C2CCN(C3CC3)CC2)ccc1NC1CCc2cccc(-c3cccc(-n4ncc(C(=O)O)c4C)n3)c21 (racemic) [Example 60, (±)-1-(6-(3-(4-(1-Cyclopropylpiperidin-4-yl)-2-methylphenyl)amino)-2,3-dihydro-1H-inden-4-yl)pyridin-2-yl)-5-methyl-1H-pyrazole-4-carboxylic Acid] | 5.3 | 
9 | Cc1cc(C2CCN(C(=O)C3CC3)CC2)ccc1NC1CCc2cccc(-c3cccc(-n4ncc(C(=O)O)c4C)n3)c21 (single isomer, unassigned; (-)) [Example 7b, (−)-1-(6-(3-((4-(1-(Cyclopropanecarbonyl)piperidin-4-yl)-2-methylphenyl)amino)-2,3-dihydro-1H-inden-4-yl)pyridin-2-yl)-5-methyl-1H-pyrazole-4-carboxylic Acid] | 2.4 | 
10 | Cc1cc(C2CCN(C(=O)CC3CC3)CC2)cc(F)c1NC1CCc2cccc(-c3cccc(-n4ncc(C(=O)O)c4C)n3)c21 (single isomer, unassigned; (-)) [(−)-53-3, (−)-1-(6(3-((4-(1-(2-cyclopropylacetyl)piperidin-4-yl)-2-fluoro-6-methylphenyl)amino)-2,3-dihydro-1H-inden-4-yl)pyridin-2-yl)-5-methyl-1H-pyrazole-4-carboxylic acid] | 59 | 
11 | CCOC(=O)N1CCC(c2ccc(NC3CCc4cccc(-c5cccc(-n6ncc(C(=O)O)c6CC)n5)c43)cc2CC)CC1 (single isomer, unassigned; (+)) [(+)-52-1] | ≤ 0.5 | 
12 | Cc1c(C(=O)O)cnn1-c1cccc(-c2cccc3c2C(Nc2ccc(C4CCN(C(=O)C5CC5)CC4)cc2)CC3)n1 (single isomer, unassigned; (-)) [Example 9. b). (−), (−)-1-(6-(3-((4-(1-(cyclopropanecarbonyl)piperidin-4-yl)phenyl)amino)-2,3-dihydro-1H-inden-4-yl)pyridin-2-yl)-5-methyl-1H-pyrazole-4-carboxylic acid] | 184 | 
13 | CCc1c(C(=O)O)cnn1-c1cccc(-c2cccc3c2C(Nc2ccc(C4CCN(CC(F)(F)F)CC4)cc2C)CC3)n1 (centres unmarked) [Example 11-3] | 1.4 | 
14 | CCc1cc(CC2CCc3cccc(-c4cccc(-n5ncc(C(=O)O)c5CC)n4)c32)ccc1C1CCN(C(=O)[C@H](C)O)CC1 (single isomer, unassigned; (-)) [Example 39. b). (−)] | 1 | 
15 | C=CCOC(=O)N1CCC(c2ccc(NC3CCc4cccc(-c5cccc(-n6ncc(C(=O)O)c6CC)n5)c43)cc2CC)CC1 (single isomer, unassigned; (-)) [(−)-52-3, (−)-1-(6-(3-((4-(1-((Allyloxy)carbonyl)piperidin-4-yl)-3-ethylphenyl)amino)-2,3-dihydro-1H-inden-4-yl)pyridin-2-yl)-5-ethyl-1H-pyrazole-4-carboxylic acid] | 3 | 
16 | Cc1cc(C2CCN(C(=O)C(C)C)CC2)ccc1NC1CCc2cccc(-c3cccc(-n4ncc(C(=O)O)c4C)n3)c21 (single isomer, unassigned; (+)) [(+)-46-1] | ≤ 0.5 | 
17 | CCc1cc(NC2CCc3cccc(-c4cccc(-n5ncc(C(=O)O)c5C)n4)c32)ccc1C1CCN(C(=O)C2CC2)CC1 (single isomer, unassigned; (+)) [(+)-46-6] | ≤ 0.5 | 
18 | Cc1cc(C2CCN(C(=O)C3CC3)CC2)ccc1NC1CCc2cccc(-c3cccc(-n4ncc(C(=O)O)c4C)c3)c21 (single isomer, unassigned; (+)) [44 (+), (+)-1-(3-(3-((4-(1-(cyclopropanecarbonyl)piperidin-4-yl)-2-methylphenyl)amino)-2,3-dihydro-1H-inden-4-yl)phenyl)-5-methyl-1H-pyrazole-4-carboxylic acid] | ≤ 0.5 | 
19 | C=CCOC(=O)N1CCC(c2ccc(O[C@H]3CCc4cccc(-c5cccc(-n6ncc(C(=O)O)c6CC)n5)c43)cc2CC)CC1 [Example 64-5, (S)-1-(6-(3-(4-(1-((Allyloxy)carbonyl)piperidin-4-yl)-3-ethylphenoxy)-2,3-dihydro-1H-inden-4-yl)pyridin-2-yl)-5-ethyl-1H-pyrazole-4-carboxylic acid] |  | ≤ 0.5
20 | Cc1cc(C2CCN(C(=O)C3CC3)CC2)ccc1NC1CCc2cccc(-c3cccc(-n4ncc(C(=O)O)c4C(F)(F)F)c3)c21 (single isomer, unassigned; (+)) [Example 6. b). (+), (+)-1-(3-(3-((4-(1-(cyclopropanecarbonyl)piperidin-4-yl)-2-methylphenyl)amino)-2,3-dihydro-1H-inden-4-yl)phenyl)-5-(trifluoromethyl)-1H-pyrazole-4-carboxylic acid] | ≤ 0.5 | 
21 | CCc1cc(CC2CCc3cccc(-c4cccc(-n5ncc(C(=O)O)c5C)n4)c32)ccc1C1CCN(C(=O)C2CC2)CC1 (single isomer, unassigned; (+)) [38-2 (+), (+)-1-(6-(3-(4-(1-(cyclopropanecarbonyl)piperidin-4-yl)-3-ethylbenzyl)-2,3-dihydro-1H-inden-4-yl)pyridin-2-yl)-5-methyl-1H-pyrazole-4-carboxylic acid] | ≤ 0.5 | 
22 | CCc1cc(O[C@H]2CCc3cccc(-c4cccc(-n5ncc(C(=O)O)c5CC)n4)c32)ccc1C1CCN(C(=O)OCC(C)C)CC1 [Example 64-2, (S)-5-Ethyl-1-(6-(3-(3-ethyl-4-(1-(isobutoxycarbonyl)piperidin-4-yl)phenoxy)-2,3-dihydro-1H-inden-4-yl)pyridin-2-yl)-1H-pyrazole-4-carboxylic acid] |  | 3
23 | CCc1cc(NC2COc3cccc(-c4cccc(-n5ncc(C(=O)O)c5C(F)(F)F)n4)c32)ccc1C1CCN(C(=O)C2CC2)CC1 (single isomer, unassigned; (-)) [(−)-36-1, (−)-1-(6-(3-((4-(1-(Cyclopropanecarbonyl)piperidin-4-yl)-3-ethylphenyl)amino)-2,3-dihydrobenzofuran-4-yl)pyridin-2-yl)-5-(trifluoromethyl)-1H-pyrazole-4-carboxylic acid] | 20 | 
24 | Cc1cc2c(c(-c3cccc(-n4ncc(C(=O)O)c4C(F)(F)F)n3)c1)C(Nc1ccc(C3CCN(C(=O)C4CC4)CC3)cc1C)CC2 (racemic) [Example 11-1, (±)-1-(6-(3-((4-(1-(cyclopropanecarbonyl)piperidin-4-yl)-2-methylphenyl)amino)-6-methyl-2,3-dihydro-1H-inden-4-yl)pyridin-2-yl)-5-(trifluoromethyl)-1H-pyrazole-4-carboxylic acid] | 1 | 
25 | CCc1cc(NC2COc3cccc(-c4cccc(-n5ncc(C(=O)O)c5C(F)(F)F)n4)c32)ccc1C1CCN(C(=O)C2CC2)CC1 (single isomer, unassigned; (+)) [(+)-36-1, (+)-1-(6-(3-((4-(1-(Cyclopropanecarbonyl)piperidin-4-yl)-3-ethylphenyl)amino)-2,3-dihydrobenzofuran-4-yl)pyridin-2-yl)-5-(trifluoromethyl)-1H-pyrazole-4-carboxylic acid] | ≤ 0.5 | 
26 | CCc1c(C(=O)O)cnn1-c1cccc(-c2cccc3c2N(Cc2ccc(C4CCN(C(=O)C5CC5)CC4)cc2C)CC3C)n1 (single isomer, unassigned; (+)) [(+)-20-2, (+)-1-(6-(1-(4-(1-(Cyclopropanecarbonyl)piperidin-4-yl)-2-methylbenzyl)-3-methylindolin-7-yl)pyridin-2-yl)-5-ethyl-1H-pyrazole-4-carboxylic acid] | 9.9 | 
